Patent US20170339957A1, “AQUEOUS DISPERSIONS” (Rohm and Haas Company, priority 2011, published 2017)

What was measured:
[1] = Protocol 1: dissolving BIT in basic solution (exotherm peak, pH, dissolution and inherent precipitation temperature); format: physicochemical
Text: “Protocol 1” means the following: A mixture (herein “mixture 1”) was formed as follows: 151.18 g of BIT paste (concentration 83% to 85% BIT by weight based on the weight of the paste) was mixed with basic solution and with water. The amount of basic solution was chosen to have equivalent ratio of 1:1 with BIT, and the amount of water was chosen to make Mixture 1 have the desired concentration of BIT. In some cases, the process of mixing the ingredients of Mixture 1 is exothermic; in such cases, the peak temperature reached by the mixture was recorded as the “exotherm peak.” From that mixture, a sample of 100 g (herein the “test1 batch”) was used. If some or all of the BIT was not dissolved, the test1 batch was heated (up to a maximum of 61° C.), and if there was a temperature of 61° C. or below at which all the BIT was dissolved, that temperature was recorded as the “dissolution temperature.” If BIT is all dissolved at ambient temperature, the dissolution temperature is herein taken to be 23° C. Then, the inherent precipitation temperature was observed by cooling the test 1 batch to 0° C. or to a point at which BIT precipitated, whichever temperature is higher. Then, the test 1 batch was heated to a temperature (herein “T2”) at or above the dissolution temperature; while the solution was at temperature T2, thickener was added and acid solution was added.
In some of the Examples below, Protocol 1 was performed repeatedly, using various basic solutions and various concentrations of BIT. The purpose of these repeated performances of Protocol 1 was to answer the following question: “While using a specific basic solution and using temperatures between approximately 23° C. and approximately 60° C., when making aqueous mixture (I), what range of BIT concentration is possible?”

[2] = pH 7.5 or lower; cited from earlier work

## O=c1[nH]sc2ccccc12 [BIT, 1,2-Benzisothiazolin-3-one]
[1]; using ammonia
  BIT concentration range for making aqueous mixture (I): 5%
[1]; using diaminoethane
  BIT concentration range for making aqueous mixture (I): 5%
[1]; using mono-ethanolamine
  BIT concentration range for making aqueous mixture (I): 5%
[2]
  solubility in water: low solubility
